Here are results for 14 molecules from EP3628659A1, “SELENOESTER-CONTAINING COMPOUNDS FOR USE IN THE TREATMENT OF MICROBIAL INFECTIONS OR COLORECTAL CANCER” (Consejo Superior De Investigaciones Científicas, priority 2018, dated 2020).

Assay [1] deals with Colo 205 doxorubicin-sensitive. In words: Cytotoxicity assay (MTT) in Colo 205 cells. It is filed as cell-based, human. The following applies: Homo sapiens, COLO 205, 24 h, read-out: Colo 205 Cytotoxicity. As to the method: (§1) Cytotoxicity assays in human colonic adenocarcinoma cell lines Colo 205 doxorubicin-sensitive (ATCC-CCL-222) and Colo 320/MDR-LRP multidrug resistant overexpressing ABCB1 (MDR1)-LRP (ATCC-CCL-220.1) were performed following the procedure described by Gajdács et al, 2017, Bioorg Med Chem Lett. 27(4): 797-802. The effects of increasing concentrations of selenium compounds on cell growth were tested in 96-well flat-bottomed microtiter plates. The selectivity of the action towards cancer cells was assessed through the evaluation of cytotoxic activity in a non-tumoral cell line, the MRC-5 human embryonal lung fibroblast cell lines (ATCC CCL-171), as described in Gajdács et al, 2017, Bioorg Med Chem Lett. 27(4): 797-802.
(§2) All cell lines were purchased from LGC Promochem, Teddington, UK. The colonic cells were cultured in RPMI 1640 medium supplemented with 10% heat-inactivated fetal bovine serum, 2 mM L-glutamine, 1 mM Na-pyruvate and 100 mM Hepes. The cell lines were incubated at 37°C, in a 5% CO2, 95% air atmosphere. The semi-adherent human colon cancer cells were detached with Trypsin-Versene (EDTA) solution for 5 min at 37°C. Alternatively, MRC-5 cells was cultured in Eagle's Minimal Essential Medium (EMEM, containing 4.5 g/L glucose) supplemented with a non-essential amino acid mixture, a selection of vitamins and 10% heat-inactivated fetal bovine serum. The cell lines were incubated at 37°C, in a 5% CO2, 95% air atmosphere.
(§3) The compounds were diluted in a volume of 100 µL of medium. The two-fold serial dilutions of selenocompounds were prepared in 100 µL of RPMI 1640, horizontally. The semi-adherent colonic adenocarcinoma cells were treated with Trypsin-Versene (EDTA) solution. They were adjusted to a density of 2×10^4 cells in 100 µL of RPMI 1640 medium, and were added to each well, with the exception of the medium control wells. The final volume of the wells containing selenocompounds and cells was 200 µL.
(§4) The culture plates were incubated at 37°C for 24 h; at the end of the incubation period, 20 µL of MTT (thiazolyl blue tetrazolium bromide, Sigma) solution (from a stock solution of 5 mg/mL) were added to each well. After incubation at 37°C for 4 h, 100 µL of sodium dodecyl sulfate (SDS) (Sigma) solution (10% in 0.01 M HCI) were added to each well and the plates were further incubated at 37°C overnight. Cell growth was determined by measuring the optical density (OD) at 540/630 nm with Multiscan EX ELISA reader (Thermo Labsystems, Cheshire, WA, USA). Inhibition of the cell growth was determined according to the formula below: […] = 100−[(OD sample−OD medium control)/(OD cell control−OD medium control)] × 100 [formula]
(§5) Results are expressed in terms of IC50, defined as the inhibitory dose that reduces the growth of the cells exposed to the tested compounds by 50%. Regarding the selectivity, the selectivity indexes (SI) were calculate, being SI the quotient of the IC50 in non-tumoral cells (MRC-5) and the respective cancer cell (Colo-205 or Colo-320). Compound is considered moderately selective when SI < 6 and ≥ 3; and strongly selective when SI ≥ 6.

Assay [2] relates to Colo 320/MDR-LRP multidrug resistant overexpressing ABCB1 (MDR1)-LRP. Kind of assay: cells. In kind it is cell-based, human. Conditions: Homo sapiens, 24 h, read-out: Colo 320 Cytotoxicity. As to the method: as §1, §2, §3, §4, §5
For a further assay, the system named is Candida albicans. Kind of assay: Antifungal activity (optical density), Candida albicans. In kind it is cell-based. The following applies: IC50 class, tested at 50, 100, 150 and 200 µM, OD 570 nm, 37 °C. Here is the method: (§6) The compounds were tested for their antifungal and nematicidal properties against the fungi Candida albicans and Saccharomyces cerevisiae, and against the nematode Steinernema feltiae.
(§7) Fungal cell densities were determined by measuring the optical density (OD) at 570 nm at 0 h (first measurement immediately after incubation), 4 h, and 24 h after incubation at 37 °C; and using a Universal Microplate Reader, EL800, Biotech Instruments, Inc. Highland Park, Winooski, VT, USA. Compounds were dissolved in 1% DMSO and were tested at final concentrations of 50, 100, 150, and 200 µM. Nutrient Sabouraud Dextrose (SD), and Yeast Peptone Dextrose (YPD) were used as media for C. albicans, and S. cerevisiae, respectively. Ketoconazole was used as the positive control for C. albicans and S. cerevisiae. The growth culture with medium for each organism was used as the negative control. The Solvent 1% DMSO stock was used as a solvent control. All experiments were carried out in triplicate and on three different occasions (n = 9).
(§8) For the three organisms considered (C. albicans, S. cerevisiae and S. feltiae), the inhibitory concentration 50% (IC50) is defined as the concentration that inhibits the viability of the respective organism to a 50% of the viability determined for the negative control.

Another assay has as its system Saccharomyces cerevisiae. In words: Antifungal activity (optical density), Saccharomyces cerevisiae. In kind it is cell-based. The following applies: read-out: Antifungal activity Saccharomyces cerevisiae, IC50 class, tested at 50, 100, 150 and 200 µM, OD 570 nm, 37 °C, read-out: Antifungal activity Streptomyces cerevisiae. Here is the method:
as §6, §7, §8

The test system of a further assay is Steinernema feltiae. Kind of assay: Nematicidal activity (viability count), Steinernema feltiae. In kind it is in vivo. The following applies: IC50 class, tested at 50, 100, 150 and 200 µM, viability at 24 h. Here is the method: as §6
The soil nematodes S. feltiae were purchased from Sautter and Stepper GmbH (Ammerbuch, Germany) and stored at 4 °C in the dark. Before each experiment, fresh samples of nematodes were purchased and stored in the fridge upon arrival and used for a maximum of six days. To perform the assay, 200 mg of nematodes was reconstituted in 50 mL of phosphate buffered saline (PBS) (pH = 7.4) to form a homogenous suspension to revive the nematodes. Afterwards, the individual suspensions were allowed to rest at room temperature. The sedimentation was avoided with occasional shaking in moderate light and at room temperature (25 °C) for 30 min. Viability of the nematodes was determined by counting the live and dead nematodes under a light microscope (TR 200, VWR International, Leuven, Belgium) at four-fold magnification. An initial viability value of more than 90 percent was considered necessary to perform the experiments.
Sample solutions were added into the wells of a 96-well plate to achieve at final concentrations of 50,100, 150, and 200 µM. Afterwards, 10 µL of nematode suspension was added to each well and the final volume in each well was adjusted to 100 µL with phosphate buffered saline (PBS) (pH = 7.4). PBS was used in the negative control and ethanol in the positive control. Viability was determined at 0 h and 24 h by counting the live and dead nematodes, whereby 50 µL of lukewarm water (40 °C) were added to each well to stimulate the nematodes for the 24 h reading. Each experiment was performed independently in triplicate and on three different occasions (n = 9).
as §8

Molecules are shown by their SMILES. A value given as a limit tells only on which side of the number the result lay.

Regarding `N#CC[Se]C(=O)c1ccccc1` [Compound 6, Se-(cyanomethyl) benzoselenoate], the IC50 is 1 to 10 µM in assay [1]; 1 to 10 µM in assay [2]; 10 to 50 µM with Candida albicans; more than 100 µM with Saccharomyces cerevisiae; 10 to 50 µM in the assay with Steinernema feltiae.

On to `CC(=O)Oc1ccccc1C(=O)[Se]CC#N` [Compound 17, Se-(cyanomethyl) 2-acetoxybenzoselenoate], for which the IC50 in assay [1] is less than 1 µM; in assay [2], 1 to 10 µM; in the assay on Candida albicans, 10 to 50 µM; with Saccharomyces cerevisiae, 10 to 50 µM; in the assay with Steinernema feltiae, 10 to 50 µM.

For the molecule `CC(C)(C)c1ccc(C(=O)[Se]CC#N)cc1` [Compound 10, Se-(cyanomethyl) 4-tert-butylbenzoselenoate], the IC50 in assay [1] was 1 to 10 µM; in assay [2], 1 to 10 µM; in the assay on Candida albicans, 10 to 50 µM; with Saccharomyces cerevisiae it was more than 100 µM; in the assay on Steinernema feltiae, more than 100 µM.

`N#CC[Se]C(=O)c1ccc(F)cc1` [Compound 1, Se-(cyanomethyl) 4-fluorobenzoselenoate]: the IC50 in assay [1] was 1 to 10 µM; in assay [2] it was 1 to 10 µM; with Candida albicans, 10 to 50 µM; with Saccharomyces cerevisiae it was more than 100 µM; in the assay with Steinernema feltiae, 50 to 100 µM.

In the case of `Cc1ccc(C(=O)[Se]CC#N)cc1` [Compound 7, Se-(cyanomethyl) 4-methylbenzoselenoate], the IC50 in assay [1] was 1 to 10 µM; in assay [2], 1 to 10 µM; in the assay on Candida albicans, 10 to 50 µM; in the assay with Saccharomyces cerevisiae, more than 100 µM; in the assay on Steinernema feltiae, 1 to 10 µM.

On to `N#CCC[Se]C(=O)c1ccc(Cl)cc1Cl` [Compound 14, Se-(cyanoethyl) 2,4-dichlorobenzoselenoate], for which the IC50 in assay [1] was 1 to 10 µM; in assay [2], 1 to 10 µM; in the assay on Candida albicans it was more than 100 µM; with Saccharomyces cerevisiae, 50 to 100 µM; in the assay on Steinernema feltiae, 10 to 50 µM.

On to `Cc1ccc(C(=O)[Se]CCC#N)cc1` [Compound 8, Se-(cyanoethyl) 4-methylbenzoselenoate], for which the IC50 in assay [1] is 1 to 10 µM; in assay [2], 1 to 10 µM; in the assay on Candida albicans, more than 100 µM; in the assay on Saccharomyces cerevisiae, 50 to 100 µM; in the assay on Steinernema feltiae, 10 to 50 µM.

In the case of `N#CC[Se]C(=O)c1ccc(Cl)cc1` [Compound 3, Se-(cyanomethyl) 4-chlorobenzoselenoate], the IC50 in assay [1] was less than 1 µM; in assay [2], 1 to 10 µM; in the assay with Candida albicans, 10 to 50 µM; with Saccharomyces cerevisiae it was more than 100 µM; in the assay on Steinernema feltiae, 10 to 50 µM.

On to `Cc1ccc(C(=O)[Se]CCCC#N)cc1` [Compound 9, Se-(cyanopropyl) 4-methylbenzoselenoate], for which the IC50 is 1 to 10 µM in assay [1]; 1 to 10 µM in assay [2]; 50 to 100 µM in the assay with Candida albicans; more than 100 µM in the assay on Saccharomyces cerevisiae; 50 to 100 µM with Steinernema feltiae.

`N#CC[Se]C(=O)c1ccc(Cl)c(Cl)c1` [Compound 15, Se-(cyanomethyl) 3,4-dichlorobenzoselenoate]: the IC50 in assay [1] is 1 to 10 µM; in assay [2], 1 to 10 µM; with Candida albicans it was 10 to 50 µM; in the assay with Saccharomyces cerevisiae it was more than 100 µM; with Steinernema feltiae, more than 100 µM.

For `N#CCC[Se]C(=O)c1ccc(Cl)cc1` [Compound 4, Se-(cyanoethyl) 4-chlorobenzoselenoate], the IC50 in assay [1] was 1 to 10 µM; in assay [2], 1 to 10 µM; in the assay on Candida albicans, more than 100 µM; in the assay with Saccharomyces cerevisiae it was 50 to 100 µM; with Steinernema feltiae, 10 to 50 µM.

Take `N#CCCC[Se]C(=O)c1ccc(Cl)cc1` [Compound 5, Se-(cyanopropyl) 4-chlorobenzoselenoate]: the IC50 in assay [1] was 1 to 10 µM; in assay [2], 1 to 10 µM; in the assay on Candida albicans, 10 to 50 µM; with Saccharomyces cerevisiae, more than 100 µM; with Steinernema feltiae, 1 to 10 µM.

With `N#CC[Se]C(=O)Cc1ccccc1` [Compound 11, Se-(cyanomethyl) 2-phenylethaneselenoate], the IC50 in assay [1] was less than 1 µM; in assay [2] it was less than 1 µM; in the assay on Candida albicans, 10 to 50 µM; with Saccharomyces cerevisiae, more than 100 µM; in the assay with Steinernema feltiae, 50 to 100 µM.

For `N#CC[Se]C(=O)c1ccc(Cl)cc1Cl` [Compound 13, Se-(cyanomethyl) 2,4-dichlorobenzoselenoate], the IC50 was 1 to 10 µM in assay [1]; 1 to 10 µM in assay [2]; 10 to 50 µM in the assay with Candida albicans; more than 100 µM in the assay with Saccharomyces cerevisiae; 10 to 50 µM in the assay on Steinernema feltiae.
